From paper PMC4997821, “The Lantibiotic NAI-107 Efficiently Rescues Drosophila melanogaster from Infection with Methicillin-Resistant Staphylococcus aureus USA300” (Antimicrobial Agents and Chemotherapy, 2016)
In brackets after ≈: the same amount, converted by molar mass. Counter-ions that a name gives are not always drawn. Like-named read-outs stand apart in the source and are kept apart here. Residues, ends and D or L forms follow the SMILES beside them.

Experiments:
S. aureus 8325-4 [1] = assay: microbe, parasite or virus in culture; assay type: cell-based, Staphylococcus aureus
Experimental: (§1) S. aureus strains 8325-4 ([35]) and USA300 ([36]) were used as indicated for the individual experiments. Bacterial cultures were grown in cation-adjusted Mueller-Hinton broth (MHB-II) at the indicated temperature.
(§2) MICs of all tested compounds were determined according to protocols using broth microdilution methodology ([46]), with minor modifications. S. aureus was grown in 10 ml MHB-II overnight at 37°C with shaking and then diluted 1:100 in fresh MHB-II and grown to an OD600 of 0.2 to 0.4. Cultures were then diluted 1:10 and grown to an OD600 of 0.2 to 0.4. These steps were performed to ensure balanced exponentially growing cultures as explained above. Finally, cultures were diluted to 1 × 10^6 CFU ml^−1 and further diluted 1:1 in microtiter plates in MHB-II with drug, leading to a final inoculum of 5 × 10^5 CFU ml^−1. MICs were determined in triplicate, and if more than one value was found, the highest was set as the MIC to keep the calculations conservative.

Drosophila melanogaster [2] = assay: Survival of uninfected control flies injected with VEH and drug; assay type: in vivo
Experimental: Injection assays were performed as previously described ([33]) by using a Nanoject-II microinjecter, but with minor modifications in the preparation of bacterial inoculums to obtain balanced cultures, as explained above. Flies were reared on standard Bloomington formulation at 25°C under a 12-h–12-h light-dark cycle and constant humidity. Adult Oregon R male flies (4 to 7 days old) were used for all injection experiments. Initial experiments with strain 8325-4 were performed in duplicate, with groups of 25 to 30 animals in each experiment. For USA300, experiments were performed in triplicate, except for the nisin experiment, which was done only in duplicate. The inoculum was prepared by resuspending cells in 10 mM MgSO4 vehicle (VEH) to an OD600 of 0.06 and was kept on ice, giving an inoculum dose of 100 to 450 CFU (8325-4) or 200 to 700 CFU (USA300) in the flies after injection of 18.4 nl. Bacterial and VEH injections were administered in the soft tissue surrounding the front legs, and drug treatment was administered in the lower thorax at 3 h postinfection. After injection of bacteria, flies were kept at 29°C and monitored for 48 to 96 h to determine mortality. Drug delivery was performed at the concentrations indicated for individual experiments. Flies which died within 3 h postinjection were considered to have died from handling and were disregarded. It is important that when drug concentrations were calculated, we performed a rough approximation of the fluid content of a fly. Fly fluid content was measured by drying out 10 groups of 50 flies each and comparing dry weight to wet weight. […] For simplicity and because we assumed that the compounds would not be distributed to all fluids, we used 0.5 μl fluid as our measure for calculating drug concentrations in the flies. Further, we assumed a rapid distribution of the compound in the open circulatory system of Drosophila and a slow clearance of the compounds by Malpighian tubules. Therefore, drug concentrations are given as the highest concentrations obtained, in multiples of the MIC.
Plotting of data was performed using GraphPad Prism 5. All in vivo survival plots were created using Kaplan-Meier analysis of pooled data for repetitive experiments. Statistical analysis was carried out with the log rank (Mantel-Cox) test for comparison of survival curves. Experiments with P values of <0.05 were considered to be significant and are stated in Results. Statistical analysis was performed on the counts of CFU per fly for the different treatment groups by using one-way analysis of variance (ANOVA) (Kruskal-Wallis test) with Dunn's multiple-comparison test for comparison of individual groups. Relevant statistical results are stated in Results.

Drosophila melanogaster [3] = assay: Adverse behavioral response (paralysis) after injection; assay type: in vivo; conditions: flies injected with high concentrations (data not shown); uncoordinated movements, inability to walk or fly
Experimental: (§3) Injection assays were performed as previously described ([33]) by using a Nanoject-II microinjecter, but with minor modifications in the preparation of bacterial inoculums to obtain balanced cultures, as explained above. Flies were reared on standard Bloomington formulation at 25°C under a 12-h–12-h light-dark cycle and constant humidity. Adult Oregon R male flies (4 to 7 days old) were used for all injection experiments. Initial experiments with strain 8325-4 were performed in duplicate, with groups of 25 to 30 animals in each experiment. For USA300, experiments were performed in triplicate, except for the nisin experiment, which was done only in duplicate. The inoculum was prepared by resuspending cells in 10 mM MgSO4 vehicle (VEH) to an OD600 of 0.06 and was kept on ice, giving an inoculum dose of 100 to 450 CFU (8325-4) or 200 to 700 CFU (USA300) in the flies after injection of 18.4 nl. […] After injection of bacteria, flies were kept at 29°C and monitored for 48 to 96 h to determine mortality. […] It is important that when drug concentrations were calculated, we performed a rough approximation of the fluid content of a fly. Fly fluid content was measured by drying out 10 groups of 50 flies each and comparing dry weight to wet weight. […]

S. aureus USA300 (MRSA) = assay: MIC testing, broth microdilution; assay type: cell-based; conditions: Staphylococcus aureus
Experimental: as §1, §2

MRSA USA300 = assay: Drosophila injection assay, survival of infected flies; assay type: in vivo, Drosophila melanogaster; conditions: 10× MIC, 3 h postinfection, 96-h period
Experimental: as §3

S. aureus USA300 = assay: Bacterial titers (CFU per fly) after treatment; assay type: in vivo, Drosophila melanogaster; conditions: USA300-infected flies, treatment 3 h postinfection
Experimental: The growth rates of S. aureus strains were examined at 37°C in vitro to determine the growth period required to obtain balanced cultures, here defined as cultures grown exponentially for no fewer than 6 generations. Prior to injection of bacteria into the in vivo fly model, the inoculums were prepared as balanced cultures grown at 37°C. Since flies used for in vivo infections were kept at 29°C, the bacterial in vitro generation time was also determined at this temperature. In vitro growth rates were defined for growth in MHB-II by measurements of the optical density at 600 nm (OD600) at 10-min intervals. Furthermore, we determined the in vivo generation time based on CFU per animal by counting the CFU at various time points by homogenizing flies infected with bacteria and plating the homogenates on mannitol salt agar (MSA). This was performed in triplicate experiments; 3 individual flies were crushed in phosphate-buffered saline (PBS), and 10× dilution series were prepared, from which 10 μl each was spot plated on MSA in triplicate. The mean value for each experiment was determined as the number of CFU per fly and plotted. […] It should also be noted that drug treatment was performed at 3 h postinfection and that the number of CFU per fly for this time point was determined prior to treatment. […]

S. aureus 8325-4 [4] = assay: Drosophila injection assay, survival of infected flies; assay type: in vivo, Drosophila melanogaster; conditions: >1,000× MIC, injection 3 h postinfection, 70-h period
Experimental: as §3

[5] = broth microdilution, MHB-II, final inoculum 5 × 10^5 CFU ml^−1, triplicate, highest value set as MIC
[6] = calculated from MIC in μg ml^−1 with the mol wt of the table, read-out: MIC (μM) 8325-4
[7] = at the concentrations tested, not given
[8] = 8325-4, read-out: MIC (μM) 8325-4

SMILES	MIC (μg ml^−1) 8325-4 (S. aureus 8325-4 [1]; [5]) [µg/mL]	MIC (S. aureus 8325-4 [1]; [6]) [µM]	Adverse behavioral response that may indicate neurotoxicity (Drosophila melanogaster [3])	Effect on survival of control animals (Drosophila melanogaster [2]; [7])	MIC (μg ml^−1) 8325-4 (S. aureus 8325-4 [1]; 8325-4) [µg/mL]	MIC (S. aureus 8325-4 [1]; [8]) [µM]	also measured
CC(C)C[C@H](NC(=O)[C@H](Cc1c[nH]c2ccccc12)NC(=O)[C@H](CCCNC(=N)N)NC(=O)[C@H](Cc1c[nH]c2ccccc12)NC(=O)[C@H](Cc1c[nH]c2ccccc12)NC(=O)[C@H](CCCCN)NC(=O)[C@H](CCCCN)NC(=O)[C@H](Cc1c[nH]c2ccccc12)NC(=O)[C@@H](N)CCCNC(=N)N)C(N)=O [GN-4] (H-RWKKWWRWL-NH2)	4 (≈ 2.77 µM)	2.77	partially paralyzed for up to 10 h postinjection				Effect on survival of control animals (Drosophila melanogaster [2]; 10× MIC in fly, compared with VEH-injected flies): no detrimental effects on survival of flies
CN[C@H](CC(C)C)C(=O)N[C@H]1C(=O)N[C@@H](CC(N)=O)C(=O)N[C@H]2C(=O)N[C@H]3C(=O)N[C@H](C(=O)N[C@H](C(=O)O)c4cc(O)cc(O)c4-c4cc3ccc4O)[C@H](O)c3ccc(c(Cl)c3)Oc3cc2cc(c3O[C@@H]2O[C@H](CO)[C@@H](O)[C@H](O)[C@H]2O[C@H]2C[C@](C)(N)[C@H](O)[C@H](C)O2)Oc2ccc(cc2Cl)[C@H]1O [Vancomycin, vancomycin hydrochloride]				no adverse effect on survival of control animals			MIC (S. aureus USA300 (MRSA); read-out: MIC (μM) USA300): 1.38 µM; MIC (S. aureus USA300 (MRSA); read-out: MIC (μg ml^−1) USA300): 2 µg/mL; Survival of USA300-infected animals compared with NAI-107 at 100× MIC (MRSA USA300): equivalent; Bacterial load compared to that with nisin treatment after 24 h (S. aureus USA300): significantly reduced the bacterial load; Proliferation of bacteria inside the animals (S. aureus USA300; CFU per fly at 0, 3, 12, 24 h on MSA): clearly disrupted the proliferation of bacteria
N=C(N)NCCC[C@H](NC(=O)[C@H](CCCNC(=N)N)NC(=O)[C@H](Cc1c[nH]c2ccccc12)NC(=O)[C@H](Cc1c[nH]c2ccccc12)NC(=O)[C@H](CCCCN)NC(=O)[C@H](Cc1c[nH]c2ccccc12)NC(=O)[C@H](Cc1c[nH]c2ccccc12)NC(=O)[C@H](CCCNC(=N)N)NC(=O)[C@@H](N)CCCCN)C(N)=O [HHC-36] (H-KRWWKWWRR-NH2)				no obvious detrimental effects on survival	8 (≈ 5.38 µM)	5.38	
CC[C@H](C)[C@H](NC(=O)[C@H](Cc1c[nH]c2ccccc12)NC(=O)[C@H](CCCNC(=N)N)NC(=O)[C@H](Cc1c[nH]c2ccccc12)NC(=O)[C@H](Cc1c[nH]c2ccccc12)NC(=O)[C@H](CCCNC(=N)N)NC(=O)[C@H](CCCCN)NC(=O)[C@H](Cc1c[nH]c2ccccc12)NC(=O)[C@@H](N)CCCNC(=N)N)C(N)=O [GN-2] (H-RWKRWWRWI-NH2)	8 (≈ 5.44 µM)	5.43	partially paralyzed for up to 10 h postinjection				
CC1(C)S[C@@H]2[C@H](NC(=O)[C@H](N)c3ccccc3)C(=O)N2[C@H]1C(=O)O [Ampicillin, Ampicillin sodium salt, reference compound]							MIC (S. aureus 8325-4 [1]; Staphylococcus aureus, 83254, broth microdilution, MHB-II, final inoculum 5 × 10^5 CFU ml^−1, triplicate, highest value set as MIC, read-out: MIC (μg ml^−1) 8325-4): 0.01 µg/mL; MIC (S. aureus 8325-4 [1]; Staphylococcus aureus, 83254, calculated from MIC in μg ml^−1 with the mol wt of the table, read-out: MIC (μM) 8325-4): 2.86 µM; Effect on survival of 8325-4-infected flies (S. aureus 8325-4 [4]): efficiently promoted survival; Effect on survival of control animals (Drosophila melanogaster [2]; >1,000× MIC, 70-h period): no lethal effects on control animals
CC(C)C[C@H](NC(=O)[C@H](Cc1c[nH]c2ccccc12)NC(=O)[C@H](Cc1c[nH]c2ccccc12)NC(=O)[C@H](CCCCN)NC(=O)[C@H](Cc1c[nH]c2ccccc12)NC(=O)[C@H](CCCNC(=N)N)NC(=O)[C@H](CCCNC(=N)N)NC(=O)[C@H](Cc1c[nH]c2ccccc12)NC(=O)[C@@H](N)CCCNC(=N)N)C(N)=O [HHC-9] (H-RWRRWKWWL-NH2)				no obvious detrimental effects on survival	4 (≈ 2.72 µM)	2.71	
